Here are results for 3 compounds from patent US10106777B2, “Directed differentiation and maturation of pluripotent cells into hepatocyte like cells by modulation of Wnt-signalling pathway” (Takara Bio Europe AB, priority 2010, dated 2018).

Data set [1] has as its system hESC-HEP cultures (cell line SA002). Briefly: Functional CYP1A activity in hESC-HEP cultures with NaB together with BIO. The settings on record: NaB 1 mM together with BIO 1.4 μM at day 21-25, vs parallel cultures without NaB. It is filed as cell-based, human. On the procedure: FIG. 9. […] Analysis is performed day 24-25, n=1.
Cell line SA002 from mEF cultures was used as starting material.

The test system of data set [2] is hESC-HEP. As to the kind of experiment: Hepatic marker expression in hESC-HEP, GSK-3 inhibitors at later stage (from day 10). The following applies: GSK-3 inhibitor from day 10, compared to BIO. It is filed as cell-based, human. The text has this: FIGS. 12A and B. Relative expression levels of hepatic markers in hESC-HEP generated with modulation of Wnt-signalling by GSK-3 inhibitors other than BIO during later maturation period (day 10 onwards). Treatments shown include: hESC-HEP (negative control; cells never exposed to GSK-inhibitor during differentiation), BIO, SB216763, Kenpaullone, Indirubin-3-O; also included is a second negative control undifferentiated hESC cells (hESC). […] GSK-3 inhibitors were present only during later differentiation (from day 10 onwards); also included is a further negative control graph showing the expression levels of a housekeeping gene (Creb) across the various samples.
Furthermore, differentiating cells were exposed to GSK-3 inhibitors only during later (from day 10) stages of differentiation. Three alternative GSK-3 inhibitors were tested alongside BIO to determine effectiveness in inducing hepatic marker expression (SB216763, Kenpaullone and Indirubin-3-O) and results were compiled both for Phase I and Phase II enzymes and hepatic markers, with two negative controls (hESC-HEP not exposed to GSK-3 inhibition during differentiation, and undifferentiated hESC cells). […]

The test system of data set [3] is hESC-HEP. As to the kind of experiment: Hepatic marker expression in hESC-HEP, GSK-3 inhibitors at mid and late stage. It is filed as cell-based, human. The following applies: Kenpaullone 0.23 μM days 3-9, 2.5 μM days 10-23, compared to BIO. The text has this:
FIGS. 13A and B. Relative expression levels of hepatic markers in hESC-HEP generated with modulation of Wnt-signalling by GSK-3 inhibitors other than BIO during both mid (days 3-9) and late stage (days 10-23) differentiation. Treatments shown include: hESC-HEP (negative control; cells never exposed to GSK-inhibitors), BIO, SB216763, Kenpaullone, Indirubin-3-O; also included is a second negative control undifferentiated hESC cells (hESC); also included is a further negative control graph showing the expression levels of a housekeeping gene (Creb) across the various samples.
Differentiating cells were exposed to GSK-3 inhibitors during both mid (days 3-9) and late (from day 10-23) stages of differentiation. Three alternative GSK-3 inhibitors were tested alongside BIO to determine effectiveness in inducing hepatic marker expression (SB216763, Kenpaullone and Indirubin-3-O) and results were compiled both for Phase I enzymes and Phase II enzymes and hepatic markers, with two negative controls (hESC-HEP not exposed to GSK-3 inhibition during differentiation, and undifferentiated hESC cells). During days 3-9 of differentiation, concentrations of GSK-3 inhibitors used were as follows: BIO 3.5 μM, SB216763 34 nM, Kenpaullone 0.23 μM and Indirubin-3-O 22 nM. […]

Data set [4] relates to hiPS cells.
Experimental: FIGS. 5A and B. hiPS cells cultured with and without the GSK3 inhibitor were compared for their hepatic profile and homogeneity. Where a GSK3 inhibitor was added it was added at a later stage of the differentiation, according to FIG. 3. Derivation of hepatocytes from human induced pluripotent stem cells (hiPS).
The cells were 30 days, n=8. hiPS vs hiPS+BIO.
The undifferentiated hiPS cells were cultured in Activin A supplemented media to stimulate initial differentiation into partly differentiated cells. The hiPS derived partly differentiated cells were then passaged (to plates coated with 0.1% Gelatin or Matrigel 0.016 mM) and induced to hepatic progenitor cells and then to hepatocyte like cells in media with and without BIO supplementation, see FIG. 3 A)-B).
The hiPS cells were cultured on mEFs until they were confluent. The cells were washed twice in PBS+/+ and treated with Activin A containing medium (See FIG. 3 a-b). The cells adapted an endoderm like morphology around day 3. When the majority of the cells were partly differentiated, the cells were exposed to media supplemented with factors inducing the cells into hepatocyte-like cells (See FIG. 3A)-B)) plus or minus BIO.
The subject of data set [5] is UDP-glucuronyltransferases (UGTs). Briefly: UGT metabolic activity in hESC-HEP from feeder-free hESC. It is filed as cell-based, human. The text has this:
FIG. 11. Relative expression levels of UGT hepatic metabolic markers in hESC-HEP generated with or without Wnt-signalling modulation by GSK-3 inhibitor BIO during endoderm to hepatocyte-like cell phase. FC=fold change relative expression, control set […] to 1 for each example. Graphs show expression levels in cells treated with one of three differentiation/maturation protocols (see example 21) and +/−GSK-3 inhibitor treatment for activity of UGTs on specific UGT substrates: (UGT1A1,[8-estradiol]); (UGT2B, [8-estradiol]; (UGT1A6, [1-Napthol]), (UGT1A9, [Propofol]), (UGT2B7, [Naloxone]). A non-specific control (Methylumbelliferone) was also included. n=number of experiments averaged to obtain results.
Metabolic activity of hESC-HEP derived from hESCs cultured in feeder-free conditions (see Examples 12-14) was measured to determine the effect of GSK-3 inhibition during development and maturation by examining the activity of several UDP-glucuronyltransferases (UGTs) (enzymes that participate in the metabolism of many drugs). Activity of these UGTs was tested via several substrates, namely: β-estradiol (UGT1A1, 3-glucuronide), 1-naphthol (UGT1A6), propofol (UGT1A9), and naloxone (UGT2B7). A non-specific control (Methylumbelliferone) was also included (see FIGS. 12A-B). hESC-HEPs were differentiated essentially according to Example 12, up to day 7. […]

Data set [6] relates to hES cells.
Experimental: Where a GSK3 inhibitor was added it was added at a later stage of the differentiation, according to FIG. 3B.
B) Results of hepatic markers from Q-PCR of the same cells that were analysed by Activity assay (Q-PCR hPS+/−BIO) n=4.
In the next data set the test system is Beta-catenin. Briefly: Immunolocalisation of Beta-catenin in hES-HEP. It is filed as cell-based, human. The text has this:
C) Immunolocalisation of Beta-catenin and Dapi staining of hES-HEP-BIO (A) and hES-HEP+BIO (B) Beta-catenin is localized at the cell membrane in hES-HEP cultures not treated and treated with BIO. […] Day 21, 20×

For data set [7], the system named is hESC derived hepatocytes (hESC-HEP). Briefly: Morphological observation of purity and homogeneity of hESC-HEP cultures. It is filed as cell-based, human. On the procedure: FIGS. 8A-E. Differentiation of hESC derived hepatocytes in the presence of GSK3 inhibitor from day 3 purifies hepatocytes from other cell types.
A-C show hESC-HEP at day 17, differentiated by protocol i or ii according to FIG. 2. D-E show hESC-HEP at day 15, differentiated by protocol iii or vi according to FIG. 2,
B) 1 μM BIO day 3-9, protocol ii.
C) 5 μM BIO day 3-9, protocol ii.
D) 0 μM BIO day 3-9, 1.5 μM BIO day 10-15 protocol iii,
E) 3.5 μM BIO day 3-9, 1.5 μM BIO day 10-15 protocol vi.
A and B show hESC-HEP cultures which are over grown by another cell type where as in C the majority of cells in the culture are hepatocyte-like cells. E represent a purer hESC-HEP culture than D. White arrow: hepatocyte-like cells, black arrow: other cell type than hepatocyte-like cells. Scale bar: 100 μm.
(§1) Thus it appears advantageous to add GSK-3 inhibitors at a later stage of differentiation to avoid massive cell death seen when it is added at day 3. […] In addition, GSK3 inhibitors at this stage may contribute/stimulate to hepatic induction of the competent endoderm.

For data set [8], the system named is hiPS cells. This is another data set of the same source.
Another data set concerns MEF cultured hESC. Briefly: Cell death on addition of BIO at day 3 of differentiation. It is filed as cell-based, human. The procedure:
as §1

For data set [9], the system named is feeder free cultured hPS cells.
Experimental: Feeder free cultured hPS cells with and without the GSK3 inhibitor, as well as an alternative method where a split media as described in FIG. 3C were compared for their hepatic profile and homogeneity.
A) Results from Activity assay of CYP1A and CYP3A measured by conversion of paracetamol and OH_midazolam respectively.
hESCs cultured under feeder free conditions were incubated in media supplemented with Activin A. The cells were then induced into hepatocytes by differentiating them to hepatic progenitor cells and then to more mature hepatocyte like cells. Cells cultured with and without the GSK3 inhibitor were compared for their hepatic profile and homogeneity.
For data set [10], the system named is hES cells. The source holds these as a separate data set.
Experimental: FIGS. 6A and B. hES cells cultured with and without the GSK3 inhibitor were compared for their hepatic profile and homogeneity, as described in examples 12 and 13. Where a GSK3 inhibitor was added it was added at a later stage of the differentiation, according to FIG. 3B.
A) Results from Activity Assay of CYP1A, 3A and 2C. […] The cells were 30 days, n=8. hPS vs hPS+BIO.B)
The test system of data set [11] is hESC-HEP (cell-line SA002).
Experimental: Qrt-PCR data is presented as fold change gene expression levels of HepG2 except for BSEP, which graph show fold change of calibrator. N=2-3, mean±SEM.
hESC-HEP were derived from cell-line SA002 cultures on mEF-layer according to Example 9, FIG. 2, protocol iii (absence of BIO between day 3-10) or Example 11, FIG. 2, protocol iv (presence of 3.5 μM BIO between day 3-10). Total RNA was collected and isolated from the two hES-HEP cultures at day 21, 24, 26 and 28 by using RNA isolation kit from Qiagene. Quantitative reverse transcriptase PCR, QrtPCR, by using Taqman probes, was performed for the following hepatic marker genes: phase I drug metabolizing enzymes; CYP (cytochrome P450) 3A4, 3A5, 3A7, 2C9, phase II drug metabolizing enzymes GSTA1 (glutation-S-transferas A1), UGT2B7 (UDP glucuronosyltransferase 2B7), phase III, transporters; MRP2 (multi-drug residence protein 2), BSEP (bile salt export pump), and general hepatic markers; A1AT (alpha-1 antitrypsin), ALB (albumin) and TAT (tyrosine-amino transferas). All data was normalised to the house-keeping gene CREB. RNA from HepG2 cultures was included and data is presented as fold change of HepG2. […] Thus, BSEP expression is instead presented as fold change of a so called calibrator which contains RNA from different sources.
Data set [12] has as its system hESC derived hepatocytes (hESC-HEP).
Experimental: Analysis are performed at day 16-18 (n=7-8), 20-21 (n=5) and 25 (n=2) respectively, mean±SD.
MEF-cultured hESCs (hES cells cultured on feeder cells) were differentiated into hepatocyte-like cells according to examples 4, 8 and 9, thus comparing the absence of BIO, a GSK3-inhibitor (Example 4), to the influence of BIO during the maturation step (day 10-26) in maturation medium I and II (MM I and MM II)(Example 8 and 9 respectively). Before adding the first medium, ID day 0-2, the cultures were washed thoroughly with PBS, twice. The different mediums were prepared freshly and added day 0 (DE day 0-1), 2 (DE day 2-4), 4 and 7-10 every other to third day (VH1), 10-26 every second or third day (MMI or MM II). […] Cells were counted in a Bürker chamber and seeded out in 0.1% gelatine coated culture units (e.g. in 24-well plates) at a cell density of 150 to 250K cells per cm^2.
At day 16, 18, 20, 21 and 25 hESC-HEP cultures were analyzed for cytochrome P450 1A activity by incubating the substrate Phenacetine to a final concentration of 26 μM in Phenol Red-free Williams Medium E, supplemented with 0.1% Penicilline-Streptomycin 2 mM L-Glutamine and 25 mM Hepes. […] Samples were analysed by Liquid chromatography-mass spectrometry (LC-MS) LCMS for presence of the metabolite Paracetamol, biotransformed by the cytochrome p450 enzymes Cyp1A2, 1A1.
The test system of data set [13] is feeder free cultured hPS cells. Briefly: Hepatic gene marker expression in hepatocyte-like cells from feeder free hESC. The settings on record: with vs without GSK3 inhibitor. It is filed as cell-based, human. On the procedure:
The split media (SM) gave the same levels as without split media. Two controls were used undifferentiated cells cultured feeder free (UD feeder free) and a perpetual cell line from a hepatocellular carcinoma (HepG2). The levels of AFP, KRT18 (Keratin 18) and KRT19 (Keratin 19) indicate that the cells are maintained in a stage where they still have the ability to proliferate. The cells were 23 days when they were analyzed, n=3.

With `CCCC(=O)[O-].[Na+]` [NaB, Sodium Butyrate], the CYP1A activity result in data set [1] was “increased”.

As to `O=C1Cc2c([nH]c3ccc(Br)cc23)-c2ccccc2N1` [Kenpaullone, 9-Bromo-7,12-dihydro-indolo[3,2-d][1]benzazepin-6(5H)-one], the “expression of most of the Phase I enzymes and hepatic markers” value in the data set with hESC-HEP [2] is given as “higher levels of expression than BIO”. Further, in the data set with hESC-HEP [3], the “expression of most of the Phase I enzymes” value is reported as “higher levels of expression than BIO”.

For `O=C1Nc2cc(Br)ccc2/C1=C1/Nc2ccccc2/C1=N\O` [BIO, (2′Z,3′E)-6-Bromoindirubin-3′-oxime], in the data set with hiPS cells [4], the CYP1A activity entry was “Increased”, the CYP3A activity entry is recorded as “Increased”, the “activity of CYP1A” value is reported as “increased” and the “activity of CYP3A” value is reported as “increased”. Also, the “metabolic activity (FIG. 5A)” value with hiPS cells [4] is on record as “greater metabolic activity”. Further, the “increase of UGT1A1 activity” value in data set [5] (+/− BIO 1.4 μM days 14-25) was “much greater than for others”. Also, the “activity of most of the UGTs” value in data set [5] (+/− BIO 1.4 μM days 14-25, three differentiation protocols) is “greater activity”. Besides, the “expression of CYP1A1, CYP1A2, CYP3A4, CYP2C9 and CYP7A1” value in the data set on hES cells [6] was “clear increase”. In addition, in the data set on hES cells [6] (hPS+/−BIO, n=4), the AAT result was “increase”; the “transporters such as MRP2, Oct-1, GSTA1, BCEP and OATP2” value is on record as “maintained at levels showing a maturation”. Also, the “Beta catenin in the cytoplasm and nuclei” value in the data set with Beta-catenin (BIO treated hES-HEP cultures, Day 21) is “commonly observed”. Further, in the data set with Beta-catenin (upon BIO treatment), the beta-catenin localisation entry is “translocate from cell membrane to nucleus”. In addition, the “culture purity (morphology)” value in [7] (3.5 μM BIO from day 3 (Example 11) vs untreated (Example 9)) is recorded as “more purified hESC-HEP compared to untreated cultures”. In data set [7] (5 μM BIO from day 3, surviving cells passaged day 4), the “culture homogeneity (morphology)” value is “highly purified and homogenous culture of hESC-HEP”. In [7] (BIO addition at a later stage (day 10+)), the “final purity of the cell populations” value is listed as “greater final purity”. Further, the “culture homogeneity (morphology)” value in [7] (low concentration (1 μM) of BIO, day 3-9) was “highly heterogeneous cultures where hardly any hepatocyte-like cells were observed”. In addition, in the data set on hiPS cells [8], the “expression of CYP1A1, CYP1A2, CYP3A4 and CYP7A1” value is “clear increase”; the “levels of CYP2C9” value is on record as “maintained high”; the “mRNA of CD44, AFP, CK18, CK19, CYP1A1, CYP1A2, CYP3A4, CYP2C9, CYP7A1, Albumin, OATP2, A1AT, MRP2” value is “Increased”; the “mRNA of CYP1A1, CYP1A2, CYP3A4, CYP2C9, CYP7A1, MRP2, CD44, AFP, CK18, CK19” value is recorded as “Increased”. In addition, in the data set with hiPS cells [8] (hiPS+/−BIO, n=4), the AAT entry was “maintained on a high level”, the AFP levels result was “decreased” and the Albumin entry is recorded as “maintained at a level high compared to known protocols”. Further, the “transporters such as MRP2, Oct-1, GSTA1, BCEP and OATP2” value in the data set on hiPS cells [8] (hiPS+/−BIO, n=4, vs HepG2) is “maintained at levels significantly higher than HepG2”. Moreover, the “maturity of hiPS derived cells (Q-PCR, immunocytochemistry, Activity Assay)” value in the data set with hiPS cells [8] (media supplemented with BIO vs absence of GSK-3 inhibitor) is reported as “became more mature”. The cell death result in the data set with MEF cultured hESC (3.5 μM BIO from day 3, compared to 5 μM BIO) is “less dramatic cell death”. In addition, the cell death result with MEF cultured hESC (5 μM BIO day 3) was “dramatic cell death”. In addition, in [9], the “metabolic activity (FIG. 4A)” value is recorded as “higher”. In addition, in the data set with hES cells [10], the “activity of CYP1A” value is reported as “increased”, the “activity of CYP2C” value is reported as “increased” and the “activity of CYP3A” value is on record as “increased”. In data set [11] (BIO supplemented at day 3), the A1AT expression result is “strong increase at day 28”; the ALB expression result is “decreased at day 26”; the “GSTA1 and UGT2B7 expression” value was “increased expression”; the “MRP2 and BSEP expression” value is given as “increased expression”. Also, in data set [11] (with BIO vs without BIO, all days), the TAT expression levels result was “higher expression levels”. For the same compound, the “Cyp1A activity over time” value in data set [12] was “increased during time”. The “hepatic gene marker expression (FIG. 4B)” value in data set [13] is “higher”.
